We go through one compound from article PMC5988692, “AZ304, a novel dual BRAF inhibitor, exerts anti-tumour effects in colorectal cancer independently of BRAF genetic status” (British Journal of Cancer, 2018).

Broadly, the IC50 is the concentration needed to halve the response being measured. Lower therefore signals greater potency. The term EC50 denotes the concentration needed to bring the measured effect to its halfway point. By GI50 is commonly meant the concentration giving 50% growth inhibition. A high value points to less potent growth inhibition.

Read-outs that look alike come from different tables or passages of the source.

One data set deals with BRAF (Homo sapiens, UniProt P15056). The experiment in a line: AlphaScreen kinase assay (MEK1/2 phosphorylation). The conditions noted are these: wild type BRAF, ATP Km. The format is biochemical. How it is done: (§1) For RAF kinases, detailed assay information was described in ref.[18] Briefly, the kinase activity of BRAF WT, BRAF V600E, or CRAF was measured using an AlphaScreen assay (Perkin Elmer, MA) monitoring MEK1/2 phosphorylation at Ser217/221. For CDK2 and CDK4 kinases, activity was also measured by AlphaScreen, monitoring phosphorylation of biotin Rb peptide at Ser780. Similarly, MAP3K7, CSF1R and JAK2 kinase activity was measured by phosphorylation of their biotinylated substrates MKK6 kinase dead protein at Ser271/Thr275, or tyrosine phosphorylation of pEY or Tyk2 Tyr1054/1055 peptides, respectively. CSK, IGF1R, EGFR, FGFR1 and SRC kinase activity was measured using a sandwich ELISA detecting phosphorylated poly EAY peptide with a HRP conjugated phosphotyrosine antibody and TMB substrate, while p38 kinase activity was measured by monitoring phosphorylation of MBP protein with radiolabeled ^33P-ATP in a filter binding format. All assays were screened under respective ATP Km conditions and inhibitor IC50s were derived from either 5 (RAF kinases, CDK2, CDK4, MAP3K7, JAK2), 10 (CSK, IGF1R, EGFR, FGFR1, SRC) or 11 (p38, CSF1R) point compound dose response.
A general note: Alpha assays give light when donor and acceptor beads are brought close together.

The target in another data set is BRAFV600E (Homo sapiens, UniProt P15056, V600E). Nature of the data set: AlphaScreen kinase assay (MEK1/2 phosphorylation). The format is biochemical. The conditions noted are these: ATP Km. As for the experimental part: as §1
For another data set, the target named is CRAF (Homo sapiens, UniProt P04049). The experiment in a line: AlphaScreen kinase assay (MEK1/2 phosphorylation). The data set is classed as biochemical. The conditions noted are these: wild type CRAF, ATP Km. How it is done:
as §1

The target in a further data set is p38 (Homo sapiens, UniProt Q16539). Nature of the data set: 33P-ATP filter binding kinase assay (MBP phosphorylation). As to conditions: ATP Km. The data set is classed as biochemical. As for the experimental part:
as §1

For the next data set, the system named is p-ERK in SK-MEL-31 cells. Nature of the data set: SK-MEL-31 p-ERK cellular assay. The format is cell-based. As to conditions: Homo sapiens, 1.25 h, read-out: EC50, reduction of p-ERK.
The test system of a further data set is A375pgp. Nature of the data set: Cell proliferation assay (cell panel, MTS). The data set is classed as cell-based. As to conditions: Homo sapiens, 72 h, Melanoma, BRAF V600E HM, RAS WT, 3 days. How it is done: (§2) The proliferation assays against a cell panel were performed as described in ref.[18] Briefly, the cells were treated with DMSO or multiple concentrations of AZ304 for 3 days. The cell growth was determined using the CellTiter 96 Aqueous One Cell Proliferation Assay (Promega, Madison, WI). […] The assays were done in triplicate across different plates.
(§3) Anti-proliferative activity of AZ304 against a panel of cell lines with different BRAF and RAS genetic status. […] Cell growth was determined by MTS assay.

Another data set deals with A549. Nature of the data set: Cell proliferation assay (cell panel, MTS). The data set is classed as cell-based. As to conditions: Homo sapiens, 72 h; A549, Lung, BRAF WT, KRAS MT, 3 days. As for the experimental part: as §2, §3
The subject of the next data set is DU145. Nature of the data set: Cell proliferation assay (cell panel, MTS). The conditions noted are these: Homo sapiens, DU-145, 72 h; DU145, Prostate, BRAF WT, RAS WT, 3 days. The data set is classed as cell-based. As for the experimental part: as §2, §3
For another data set, the system named is HCT116. Nature of the data set: Cell proliferation assay (cell panel, MTS). The data set is classed as cell-based. As to conditions: Homo sapiens, HCT-116, 72 h; HCT116, Colon, BRAF WT, KRAS MT, 3 days. How it is done: as §2, §3
For the next data set, the system named is HT29. The experiment in a line: Cell proliferation assay (cell panel, MTS). The conditions noted are these: Homo sapiens, HT-29, 72 h; HT29, Colon, BRAF V600E HT, RAS WT, 3 days. The format is cell-based. As for the experimental part: as §2, §3
Another data set has as its system IM-9. Nature of the data set: Cell proliferation assay (cell panel, MTS). The format is cell-based. The conditions noted are these: Homo sapiens, 72 h; IM-9, Lymphoma, BRAF WT, NRAS MT, 3 days. How it is done: as §2, §3
The test system of the next data set is JVM-3. Nature of the data set: Cell proliferation assay (cell panel, MTS). The conditions noted are these: Homo sapiens, 72 h; JVM-3, Lymphoma, BRAF K601N, RAS WT, 3 days. The format is cell-based. How it is done:
as §2, §3

The next data set deals with MIAPaCa-2. The experiment in a line: Cell proliferation assay (cell panel, MTS). The data set is classed as cell-based. As to conditions: Homo sapiens, MIA PaCa-2, 72 h; MIAPaCa-2, Pancreas, BRAF WT, KRAS MT, 3 days. How it is done: as §2, §3
A further data set has as its system Melma-3M. The experiment in a line: Cell proliferation assay (cell panel, MTS). The conditions noted are these: Homo sapiens, 72 h, Melanoma, BRAF V600E, RAS WT, 3 days. The format is cell-based. How it is done:
as §2, §3

The test system of another data set is NCI-H1755. Nature of the data set: Cell proliferation assay (cell panel, MTS). The format is cell-based. The conditions noted are these: Homo sapiens, 72 h; NCI-H1755, Lung, BRAF A468, RAS WT, 3 days. As for the experimental part:
as §2, §3

The test system of another data set is NCI-H460. Nature of the data set: Cell proliferation assay (cell panel, MTS). The data set is classed as cell-based. The conditions noted are these: Homo sapiens, 72 h; NCI-H460, Lung, BRAF WT, KRAS MT, 3 days. How it is done:
as §2, §3

A further data set has as its system PC-3. Nature of the data set: Cell proliferation assay (cell panel, MTS). The data set is classed as cell-based. As to conditions: Homo sapiens, 72 h; PC-3, Prostate, BRAF WT, RAS WT, 3 days. As for the experimental part: as §2, §3
A further data set deals with SK-BR-3. Nature of the data set: Cell proliferation assay (cell panel, MTS). The format is cell-based. The conditions noted are these: Homo sapiens, 72 h; SK-BR-3, Breast, BRAF WT, RAS WT, 3 days. How it is done:
as §2, §3

The next data set has as its system SK-MEL-24. The experiment in a line: Cell proliferation assay (cell panel, MTS). The conditions noted are these: Homo sapiens, 72 h; SK-MEL-24, Melanoma, BRAF V600E, RAS WT, 3 days. The format is cell-based. How it is done:
as §2, §3

The test system of the next data set is SK-OV3. Nature of the data set: Cell proliferation assay (cell panel, MTS). The data set is classed as cell-based. The conditions noted are these: Homo sapiens, SK-OV-3, 72 h; SK-OV3, Ovary, BRAF WT, RAS WT, 3 days. How it is done:
as §2, §3

The next data set deals with U937. Nature of the data set: Cell proliferation assay (cell panel, MTS). The data set is classed as cell-based. The conditions noted are these: Homo sapiens, U-937, 72 h; U937, Lymphoma, BRAF WT, RAS WT, 3 days. How it is done: as §2, §3
A short description of data set [1]: Xenograft study, animal health and body weight. The format is in vivo. The conditions noted are these: RKO and Caco-2 xenograft mice, 10 days treatment. As for the experimental part:
All in vivo experiments were performed in accordance with Institutional Review Board of China Medical University guidelines. Female 4–6 weeks old athymic BALB/c nude mice were purchased from Shanghai SLAC Laboratory Animal Centre (Shanghai, China). RKO/Caco-2 cells (1 × 10^7) in 200 μl PBS were injected subcutaneously into the right scapular region of mice. […] Tumours were measured with a caliper every 2 days, so did body weights. Tumour volume was calculated using the formula V = 1/2 (width^2 × length). Mice were terminated by CO2 inhalation when the tumour diameters reached 1.5 cm, according to the protocol filed with the Guidance of Institutional Animal Care and Use Committee of China Medical University.
Supplementary Figure 2 Weights of xenografts from RKO and Caco-2 cells was measured every 2 days.

Sequence of BRAF (P15056 457-717 limits assumed): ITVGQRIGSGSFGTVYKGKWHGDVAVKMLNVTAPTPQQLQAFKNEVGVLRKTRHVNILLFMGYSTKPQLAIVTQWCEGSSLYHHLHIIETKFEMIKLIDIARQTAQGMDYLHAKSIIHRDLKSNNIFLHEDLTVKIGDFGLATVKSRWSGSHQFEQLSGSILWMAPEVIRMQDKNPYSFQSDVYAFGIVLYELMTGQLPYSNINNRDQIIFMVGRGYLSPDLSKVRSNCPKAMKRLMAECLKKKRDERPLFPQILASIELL
Sequence of CRAF (P04049 349-609 limits assumed): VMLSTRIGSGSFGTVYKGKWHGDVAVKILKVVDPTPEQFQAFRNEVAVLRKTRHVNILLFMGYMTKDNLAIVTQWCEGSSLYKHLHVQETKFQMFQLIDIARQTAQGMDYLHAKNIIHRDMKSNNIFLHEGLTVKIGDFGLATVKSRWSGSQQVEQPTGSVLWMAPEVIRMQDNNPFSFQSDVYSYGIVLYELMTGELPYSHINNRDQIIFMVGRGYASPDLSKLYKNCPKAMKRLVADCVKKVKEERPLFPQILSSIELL
Sequence of BRAFV600E (P15056 457-717 V600E limits assumed): as the sequence (P15056 457-717 limits assumed) above, with V144E counted along it
Sequence of p38 (Q16539 whole entry): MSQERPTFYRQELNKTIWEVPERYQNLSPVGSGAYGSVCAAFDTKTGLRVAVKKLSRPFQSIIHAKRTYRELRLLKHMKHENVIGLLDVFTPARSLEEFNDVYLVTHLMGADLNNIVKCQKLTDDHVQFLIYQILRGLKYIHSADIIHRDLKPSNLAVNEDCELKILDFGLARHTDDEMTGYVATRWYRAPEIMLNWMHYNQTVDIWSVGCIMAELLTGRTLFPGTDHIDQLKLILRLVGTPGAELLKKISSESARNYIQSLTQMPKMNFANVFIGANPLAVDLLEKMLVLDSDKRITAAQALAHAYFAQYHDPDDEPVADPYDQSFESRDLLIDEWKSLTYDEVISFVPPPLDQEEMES

For the compound `COc1ccc2c(Nc3cc(NC(=O)c4cccc(C(C)(C)C#N)c4)ccc3C)ncnc2c1` [AZ304], the concentration for half-maximal inhibition (IC50) at BRAF was determined as 79 nM; against BRAFV600E, 38 nM; at CRAF, 68 nM; at p38, 6 nM. Besides, the 50% effective concentration (EC50) in the data set with p-ERK in SK-MEL-31 cells (SK-MEL-31 (wild type BRAF melanoma), 75 min, without EGF) came out at 60 nM; with p-ERK in SK-MEL-31 cells (SK-MEL-31, 75 min, with EGF stimulation), 52 nM. The GI50 in the data set on A375pgp was 430 nM; in the data set on A549, 16700 nM; in the data set with DU145 it was 11700 nM; in the data set with HCT116, 2740 nM; in the data set with HT29, 510 nM; in the data set on IM-9, 900 nM. Besides, the GI50 stood at 1680 nM in the data set on JVM-3; 1160 nM in the data set on MIAPaCa-2; 100 nM in the data set on Melma-3M; 7720 nM in the data set with NCI-H1755; 8560 nM in the data set on NCI-H460; 6680 nM in the data set with PC-3. Besides, the GI50 turned out to be 11600 nM with SK-BR-3, 80 nM in the data set on SK-MEL-24, 6180 nM with SK-OV3 and 9370 nM with U937. Further, in data set [1], the “tolerability (animal health, body weight)” value is recorded as “without obvious toxicity”.
